Read-outs that look alike come from different tables or passages of the source.
Key:
HIV = experiment: In vitro anti-HIV activity, PBMC cell-based assay, side by side with AZT; settings: Human immunodeficiency virus 1
[1] = Cytotoxicity (CC50) in the PBMC cell-based anti-HIV assay
[2] = literature values, same sources as the IC50; cited from earlier work

Row | Compound | IC50 (HIV) | CC50 [1] | CC50 [2]
1 | O=C(O)/C(O)=C/C(=O)c1cn(Cc2ccccc2)c(=O)n(Cc2ccccc2)c1=O | 0.02 µM | > 200 µM | 
2 | O=C(O)C(=O)CC(=O)c1cc(OCc2ccccc2)cc(OCc2ccccc2)c1 [Example L-708906] |  |  | 88.3 µM
3 | O=C(/C=C(\O)c1nc[nH]n1)c1ccc(Cc2ccc(F)cc2)o1 [Example S-1360] |  |  | 110 µM

Source: patent US7569573B2, “Diketo acids with nucleobase scaffolds: anti-HIV replication inhibitors targeted at HIV integrase” (The University of Georgia Research Foundation, Inc., priority 2005, dated 2009)
